Data on 2 compounds can be found in patent US20150073002A1, “COMBINATION” (GlaxoSmithKline LLC, priority 2010, published 2015).

Read-outs that look alike come from different tables or passages of the source.

One test relates to HCC1419. In words: Cell growth inhibition assay (Cell Titer Glo), HCC1419. Type of test: cell-based. The note with it: Homo sapiens, 72 h; HCC1419, 3 days, single agent; read-out: Single Agent IC50 (μM), mean ± STD. The method, then:
(§1) Human breast tumor cell lines BT474, HCC1419, HCC1954, JIMT1, MDA-MB-361, SK-BR-3 and UACC893 were cultured in RPMI 1640 medium containing 10% FBS. BT-474-J4, a breast cancer cell line acquired resistant to Compound A was cultured in RPMI 1640 medium containing 10% FBS and 1 μM of Compound A. KPL4 breast cancer line was cultured in DMEM containing 5% FBS. All lines were kept in a humidified incubator at 37° C. in 95% air and 5% CO2. JIMT-1 is a cell line established from a tumor of a patient with trastuzumab-resistant breast cancer. BT-474-J4 is a single cell clone derived from a culture of BT-474 cells that were selected to grow in Compound A to a concentration of 3 μM.
(§2) All cells were cultured for a minimum of 72 hours prior to cell plating. […] ATP levels were determined by adding Cell Titer Glo® (Promega) according to the manufacturer's protocol. Briefly, Cell Titer Glo® was added to each plate, incubated for 20 minutes then the luminescent signal was read on a SpectraMax L plate reader with a 0.5 sec integration time.
(§3) Inhibition of cell growth was estimated after treatment with compound or a combination of compounds for three days and comparing the signal to cells treated with vehicle (DMSO). Cell growth was calculated relative to vehicle (DMSO) treated control wells. […]

In a further test the test system is SK-BR-3. In words: Cell growth inhibition assay (Cell Titer Glo), SK-BR-3. It is filed as cell-based. The note with it: Homo sapiens, 72 h; SK-BR-3, 3 days, single agent; read-out: Single Agent IC50 (μM), mean ± STD. The method, then: as §1, §2, §3
The next test deals with BT-474. In words: Cell growth inhibition assay (Cell Titer Glo), BT-474. It is filed as cell-based. The note with it: Homo sapiens, 72 h; BT-474, 3 days, single agent; read-out: Single Agent IC50 (μM), mean ± STD. The method, then:
as §1, §2, §3

The subject of a further test is KPL4. In words: Cell growth inhibition assay (Cell Titer Glo), KPL4. Type of test: cell-based. The note with it: Homo sapiens, 72 h; KPL4, 3 days, single agent; read-out: Single Agent IC50 (μM), mean ± STD. The method, then: as §1, §2, §3
The test system of a further test is UACC893. In words: Cell growth inhibition assay (Cell Titer Glo), UACC893. Type of test: cell-based. The conditions noted are these: Homo sapiens, UACC-893, 72 h; UACC893, 3 days, single agent; read-out: Single Agent IC50 (μM), mean ± STD. The procedure:
as §1, §2, §3

The test system of a further test is HCC1954. In words: Cell growth inhibition assay (Cell Titer Glo), HCC1954. Type of test: cell-based. The conditions noted are these: Homo sapiens, 72 h; HCC1954, 3 days, single agent; read-out: Single Agent IC50 (μM), mean ± STD. The method, then: as §1, §2, §3
The test system of another test is BT-474-J4. In words: Cell growth inhibition assay (Cell Titer Glo), BT-474-J4. The note with it: BT-474-J4, 3 days, single agent, read-out: Single Agent IC50 (μM), mean ± STD. Type of test: cell-based, human. The method, then:
as §1
(§4) All cells were cultured for a minimum of 72 hours prior to cell plating. Cells were assayed in a 96-well tissue culture plate (NUNC 136102) of RPMI medium containing 10% FBS for all cells at 2,000 cells per well except KPL4, which were plated in DMEM containing 5% FBS at 500 cells per well. Approximately 24 hours after plating, cells were exposed to ten, two-fold or three-fold serial dilutions of compound or the combination of the two agents at a constant molar to molar ratio of 1:1 Compound A to Compound B in RPMI media containing 10% FBS or DMEM containing 5% FBS for KPL4. Cells were incubated in the presence of compounds for 3 days. ATP levels were determined by adding Cell Titer Glo® (Promega) according to the manufacturer's protocol. Briefly, Cell Titer Glo® was added to each plate, incubated for 20 minutes then the luminescent signal was read on a SpectraMax L plate reader with a 0.5 sec integration time.
as §3

In the next test the test system is MDA-MB-361. In words: Cell growth inhibition assay (Cell Titer Glo), MDA-MB-361. The conditions noted are these: MDA-MB-361, 3 days, single agent, read-out: Single Agent IC50 (μM), mean ± STD. It is filed as cell-based, human. The procedure: as §1
All cells were cultured for a minimum of 72 hours prior to cell plating. Cells were assayed in a 96-well tissue culture plate (NUNC 136102) of RPMI medium containing 10% FBS for all cells at 2,000 cells per well except KPL4, which were plated in DMEM containing 5% FBS at 500 cells per well. […] ATP levels were determined by adding Cell Titer Glo® (Promega) according to the manufacturer's protocol. Briefly, Cell Titer Glo® was added to each plate, incubated for 20 minutes then the luminescent signal was read on a SpectraMax L plate reader with a 0.5 sec integration time.
as §3
(§5) Combination effects on potency were evaluated using Combination Index (CI) which was calculated with the back-interpolated IC50 values and the mutually non-exclusive equation derived by Chou and Talalay (Chou T C, Talalay P. Quantitative analysis of dose-effect relationships: the combined effects of multiple drugs or enzyme inhibitors. Adv Enzyme Regul 1984; 22:27-55): […]

The subject of the next test is JIMT-1. In words: Cell growth inhibition assay (Cell Titer Glo), JIMT-1. Type of test: cell-based, human. The note with it: JIMT-1, 3 days, single agent, read-out: Single Agent IC50 (μM), mean ± STD. The method, then:
as §1, §4, §3, §5
(§6) The combination effects on the response scale were quantified by Excess Over Highest Single Agent (EOHSA) [Liu L, Shi H, Liu Y, Anderson A, Peterson J, Greger J, Martin A M, Gilmer T M. Synergistic Effects of Foretinib with HER-Targeted Agents in MET and HER1- or HER2-Coactivated Tumor Cells. […] For single agent and combination treatments, cells were exposed to compounds at a fixed-dose-ratio, and dose response curves were fit to the experimental data and analyzed using regression models described above. […]

Test [1] deals with HCC1419, SK-BR-3 and BT474 lines. In words: Cell growth inhibition, text summary over three lines. Type of test: cell-based. The conditions noted are these: Homo sapiens, 72 h; over HCC1419, SK-BR-3 and BT474 lines, 3 days; read-out: IC50 as a single agent. The method, then: as §1, §4, §3, §5, §6
Test [2] relates to KPL-4, UACC893 and HCC1954 lines. The description is as above. Type of test: cell-based. The conditions noted are these: Homo sapiens, 72 h; over KPL-4, UACC893 and HCC1954 lines, 3 days; read-out: IC50 as a single agent. The procedure:
as §1, §4, §3, §5, §6

The subject of another test is BT474-J4, and MDA-MB-361. In words: Cell growth inhibition, text summary over two lines. Type of test: cell-based. The note with it: Homo sapiens, 72 h; over BT474-J4 and MDA-MB-361 lines, 3 days; read-out: IC50 as a single agent. The procedure: All cells were cultured for a minimum of 72 hours prior to cell plating. […] Cells were incubated in the presence of compounds for 3 days. ATP levels were determined by adding Cell Titer Glo® (Promega) according to the manufacturer's protocol.
Cell growth was calculated relative to vehicle (DMSO) treated control wells.
In general, a CI value <0.9, between 0.9 and 1.1, or >1.1 indicates synergy, additivity and antagonism, respectively. In general, the smaller the CI number, the greater is the strength of synergy.

In a further test the test system is BT474. In words: Cell apoptosis induction, caspase-3/7 activation, BT474. It is filed as cell-based, human. The conditions noted are these: BT474, 24 hours. The procedure: as §1
(§7) For investigation of the induction of apoptosis, cells were plated at 5,000 cells per well in a 96-well tissue culture plate and allowed to attach for approximately 24 hours. Cells were exposed to ten, two-fold or three-fold serial dilutions of compound or the combination of the two agents at a constant molar to molar ratio of 10:1 Compound A to Compound B in RPMI media containing 10% FBS or DMEM containing 5% FBS for KPL4. Twenty-four hours after compound treatment, caspase 3/7 activity was determined with the Caspase Glo™ 3/7 (Promega, cat G8093) according to the instructions provided by the manufacturer.

The test system of the next test is KPL-4. In words: Cell apoptosis induction, caspase-3/7 activation, KPL-4. Type of test: cell-based, human. The method, then: as §1, §7
The next test deals with BT474-J4. In words: Cell apoptosis induction, caspase-3/7 activation, BT474-J4. Type of test: cell-based, human. The conditions noted are these: BT474-J4, 24 hours. The method, then:
as §1, §7

For the compound `CS(=O)(=O)CCNCc1ccc(-c2ccc3ncnc(Nc4ccc(OCc5cccc(F)c5)c(Cl)c4)c3c2)o1` [Compound A, N-{3-Chloro-4-[(3-fluorobenzyl)oxy]phenyl}-6-[5-({[2-(methanesulphonyl)ethyl]amino}methyl)-2-furyl]-4-quinazolinamine, reference compound], the concentration for half-maximal inhibition (IC50) in the test with HCC1419 worked out at 0.077 ± 0.017 µM; in the test with SK-BR-3, 0.105 ± 0.039 µM; in the test with BT-474 it was 0.134 ± 0.049 µM; in the test on KPL4 it was 0.86 ± 0.039 µM; with UACC893 it was 1.12 ± 0.15 µM; in the test with HCC1954, 1.73 ± 0.165 µM. The IC50 in the test with BT-474-J4 (Homo sapiens, 72 h) was 9.23 ± 3.83 µM; in the test on MDA-MB-361 (Homo sapiens, MDA-MB-361, 72 h), more than 10 µM; in the test with JIMT-1 (Homo sapiens, JIMT-1, 72 h) it was not below 6.8 µM; in the test with JIMT-1, more than 10 µM; in test [1] it was not above 134 nM; in test [2] it was 900 to 1700 nM. Besides, the IC50 in the test on BT474-J4, and MDA-MB-361 was not below 9200 nM. For the same compound, the “caspase 3/7 activity” value with BT474 (compound alone, dose response) is on record as “increased caspase 3/7 activity in a dose dependent manner”; in the test on KPL-4 (KPL4, 24 hours, compound alone at 10 μM), “slight increase in caspase 3/7 activity”; in the test with BT474-J4 (compound alone at 10 μM), “slight increase in caspase 3/7 activity”.
For the compound `Cn1ncc(Cl)c1-c1cc(C(=O)N[C@H](CN)Cc2cccc(F)c2)sc1Cl` [Compound B, N-{(1S)-2-amino-1-[(3-fluorophenyl)methyl]ethyl}-5-chloro-4-(4-chloro-1-methyl-1H-pyrazol-5-yl)-2-thiophenecarboxamide], the IC50 in the test on HCC1419 amounted to 2.62 ± 0.548 µM; in the test on SK-BR-3, 4.19 ± 1.58 µM; in the test with BT-474 it was 3.3 ± 1.1 µM; in the test on KPL4 it was 0.113 ± 0.012 µM; in the test with UACC893, 0.505 ± 0.303 µM; in the test on HCC1954, 3.67 ± 2.97 µM. Also, the 50% inhibitory concentration (IC50) with BT-474-J4 was 0.67 ± 0.026 µM; in the test on BT-474-J4 (Homo sapiens, 72 h), 0.5 µM; in the test on MDA-MB-361 (Homo sapiens, MDA-MB-361, 72 h), 0.7 µM; with MDA-MB-361, 0.758 ± 0.074 µM; in the test on JIMT-1 (Homo sapiens, JIMT-1, 72 h), not below 6.8 µM; with JIMT-1, 6.81 ± 2.13 µM. The IC50 was not below 2600 nM in test [1] and 500 to 3700 nM in [2]. The “caspase 3/7 activity” value in the test with BT474 (compound alone at 1 μM) is “slightly increased caspase 3/7 activity”; in the test on KPL-4 (KPL-4, 24 hours, compound alone at 1 μM), “but not in the KPL-4 line”; in the test with BT474-J4 (compound alone at 1 μM), “slightly increased caspase 3/7 activity”.
